Laboratory results reported in patent US8541572B2.
Read-outs that look alike come from different tables or passages of the source.

Experiments:
[1] = Area under the curve determination of plasma levels in rats (rrAUC); type: in vivo; conditions: rat, oral 10 mg/kg
[2] = system: TNF-α production in LPS-stimulated human whole blood; experiment: Inhibition of TNF-α production from human whole blood (hWBA); type: cell-based; conditions: LPS-stimulated human whole blood, read-out: hWBA
[3] = plasma 0.5-6 h post-dosing, read-out: RR AUC
[4] = IC50 for inhibition of TNF-α production
[5] = plasma 0.5-6 h, read-out: RR AUC (nM · h), rapid rat AUC (rrAUC)
[6] = Homo sapiens, IC50 for TNF-α production

Compound | AUC [1, 3] [µM·h] | IC50 ([2]; IC50 for TNF-α production) [nM] | other results
CON=C(c1ccc(C#C[C@]2(CN3Cc4ccc(OC)cc4C3=O)NC(=O)NC2=O)cc1)N1CCOCC1 [Compound 932] |  |  | AUC [1, 5]: 3.17 µM·h
CCN1CCN(Cc2ccc(C#C[C@]3(CN4Cc5ccc(OC)c(F)c5C4=O)NC(=O)NC3=O)cc2)CC1 [Compound 974] | 0.034 |  | IC50 [2, 4]: 125 nM
COc1ccc2c(c1F)C(=O)N(C[C@@]1(C#Cc3ccc(C4(C)NC(=O)NC4=O)c(F)c3)NC(=O)NC1=O)C2 (stereo partly drawn) [Compound 1302] | 5.64 |  | 
COc1ccc2c(c1F)C(=O)N(C[C@@]1(C#Cc3cncc(F)c3)NC(=O)NC1=O)C2 [Compound 1310] | 1.77 |  | 
COc1ccc2c(c1F)C(=O)N(C[C@@]1(C#Cc3ccc(C4(C(N)=O)CCN(C)CC4)cc3)NC(=O)NC1=O)C2 [Compound 1314] | 0.016 |  | IC50 [2, 4]: 152 nM
COc1ccc2c(c1)C(=O)N(C[C@@]1(C#Cc3nc(N4C[C@H](O)CC4=O)ccc3OC)NC(=O)NC1=O)C2 [Compound 1503] | 0.035 |  | 
COc1ccc2c(c1F)C(=O)N(C[C@@]1(C#Cc3ccc(C4(O)CCNCC4)cc3)NC(=O)NC1=O)C2 [Compound 1701] | 0.041 |  | 
COc1ccc2c(c1)C(=O)N(C[C@@]1(C#Cc3ccc(N4C(=O)CCC4C(=O)NC4CC4)cc3)NC(=O)NC1=O)C2 (stereo partly drawn) [Compound 1902] | 0.025 |  | 
COc1ccc2c(c1F)C(=O)N(C[C@@]1(C#Cc3ccc(N4C(=O)CCC4C(=O)NC4CC4)cc3)NC(=O)NC1=O)C2 (stereo partly drawn) [Compound 1904] | 0.213 |  | IC50 [2, 4]: 278 nM
COc1ccc2c(c1F)C(=O)N(C[C@@]1(C#Cc3ccc4c(c3)CCC43NC(=O)NC3=O)NC(=O)NC1=O)C2 (stereo partly drawn) [Compound 2214] | 3.46 |  | IC50 [2, 4]: 186 nM
COc1ccc2c(c1)C(=O)N(C[C@@]1(C#Cc3ccc(C(=NO)c4ccc(F)cc4)cc3)NC(=O)NC1=O)C2 [Compound 2245] | 1.07 |  | IC50 ([2]; Homo sapiens, IC50 for inhibition of TNF-α production): 954 nM
COc1ccc2c(c1Cl)C(=O)N(CC1(C#Cc3cccnc3)NC(=O)NC1=O)C2 (stereo not drawn) [Compound 2247] | 0.38 |  | IC50 [2, 4]: 1000 nM
COc1ccc2c(c1)C(=O)N(C[C@@]1(C#Cc3ccc(F)c(C(O)(O)C(F)(F)F)c3)NC(=O)NC1=O)C2 [Compound 2251] |  |  | AUC [1, 5]: 0.171 µM·h
COc1ccc2c(c1)C(=O)N(C[C@@]1(C#Cc3ccc([C@H]4CCC(=O)N4)cc3)NC(=O)NC1=O)C2 [Compound 2259] |  |  | AUC [1, 5]: 0.126 µM·h
COc1ccc2c(c1)C(=O)N(C[C@@]1(C#Cc3cccnc3-c3cn[nH]c3)NC(=O)NC1=O)C2 [Compound 2266] |  |  | IC50 [2, 6]: 927 nM
COc1ccc2c(c1)C(=O)N(C[C@@]1(C#Cc3ccc(-c4cnn(C)c4)nc3)NC(=O)NC1=O)C2 [Compound 2269] |  |  | AUC [1, 5]: 0.924 µM·h
COc1ccc2c(c1)C(=O)N(C[C@@]1(C#Cc3cccnc3-c3cccnc3)NC(=O)NC1=O)C2 [Compound 2270] |  |  | IC50 [2, 6]: 2110 nM
COC(=O)C(c1ccc(C#C[C@]2(CN3Cc4ccc(OC)cc4C3=O)NC(=O)NC2=O)cc1)N1CCCNCC1 (stereo partly drawn) [Compound 2271] |  | 566 | 

Compound | AUC [1, 3] [µM·h] | IC50 ([2]; IC50 for TNF-α production) [nM] | other results
COc1ccc2c(c1)C(=O)N(C[C@@]1(C#Cc3ccc(CC4(C)NC(=O)NC4=O)cc3)NC(=O)NC1=O)C2 (stereo partly drawn) [Compound 2281] |  |  | IC50 [2, 6]: 1000 nM
COC(=O)Cc1ccc(C#C[C@]2(CN3Cc4ccc(OC)cc4C3=O)NC(=O)NC2=O)cc1 [Compound 2284] |  |  | IC50 [2, 6]: 379 nM
COc1ccc2c(c1)C(=O)N(CC1(C#Cc3cccnc3N3CCN(C)CC3)NC(=O)NC1=O)C2 (stereo not drawn) [Compound 2285] |  |  | IC50 [2, 6]: 1230 nM
COc1ccc2c(c1)C(=O)N(CC1(C#Cc3cccnc3NCCN(C)C)NC(=O)NC1=O)C2 (stereo not drawn) [Compound 2286] |  |  | IC50 [2, 6]: 2000 nM
COc1ccc2c(c1)C(=O)N(C[C@@]1(C#Cc3cccnc3N3CCOCC3)NC(=O)NC1=O)C2 [Compound 2287] |  |  | IC50 [2, 6]: 633 nM
COc1ccc2c(c1)C(=O)N(C[C@@]1(C#Cc3ccc(C(=NO)N4[C@H](C)CNC[C@@H]4C)cc3)NC(=O)NC1=O)C2 [Compound 2294] |  | 327 | 
COc1ccc2c(c1)C(=O)N(C[C@@]1(C#Cc3ccc(N4CCCCC4=O)cc3)NC(=O)NC1=O)C2 [Compound 2295] |  |  | IC50 [2, 6]: 1390 nM
COc1ccc2c(c1)C(=O)N(C[C@@]1(C#Cc3ccc(-c4cn[nH]c4N)cc3)NC(=O)NC1=O)C2 [Compound 2296] |  |  | IC50 [2, 6]: 236 nM
COc1ccc2c(c1)C(=O)N(CC1(C#Cc3cnc(N4CCC5(CC4)NC(=O)NC5=O)nc3N)NC(=O)NC1=O)C2 (stereo not drawn) [Compound 2310] |  | 557 | 
COc1ccc2c(c1)C(=O)N(C[C@@]1(C#Cc3ccc(N4CCC5(CC4)NC(=O)NC5=O)nc3)NC(=O)NC1=O)C2 [Compound 2311] |  |  | IC50 [2, 6]: 348 nM
COc1ccc2c(c1)C(=O)N(C[C@@]1(C#Cc3ccc4c(c3)CC[C@]43NC(=O)NC3=O)NC(=O)NC1=O)C2 [Compound 2313] |  |  | AUC [1, 5]: 0.53 µM·h
COc1ccc2c(c1)C(=O)N(C[C@@]1(C#Cc3ccc4c(c3)CC[C@@]43NC(=O)NC3=O)NC(=O)NC1=O)C2 [Compound 2314] |  |  | AUC [1, 5]: 0.218 µM·h
CCN1CCN(C(=NO)c2ccc(C#C[C@]3(CN4CCc5cc(OC)ccc5C4=O)NC(=O)NC3=O)cc2)CC1 [Compound 2316] |  | 335 | 
COc1ccc2c(c1)CCN(C[C@@]1(C#Cc3ccc(C(=NO)N4CCCN(C)CC4)cc3)NC(=O)NC1=O)C2=O [Compound 2317] |  | 639 | 
COc1ccc2c(c1)CCN(C[C@@]1(C#Cc3ccc(C(=NO)N4CCOCC4)cc3)NC(=O)NC1=O)C2=O [Compound 2319] |  | 1060 | 
COc1ccc2c(c1)CCN(C[C@@]1(C#Cc3ccc(C(=NO)N4CCN(C)CC4)cc3)NC(=O)NC1=O)C2=O [Compound 2320] |  | 261 | 
COc1ccc2c(c1)CCN(C[C@@]1(C#Cc3ccc4c(c3)CCCC43NC(=O)NC3=O)NC(=O)NC1=O)C2=O (stereo partly drawn) [Compound 2321] |  | 1100 | 

The next lines start with results.

AUC [1, 3] [µM·h] | IC50 ([2]; IC50 for TNF-α production) [nM] | Compound | other results
2.6 |  | COc1ccc2c(c1)C(=O)N(C[C@@]1(C#Cc3ccc(C(N)C(F)(F)F)cc3)NC(=O)NC1=O)C2 (stereo partly drawn) [Compound 300] | 
0.012 |  | COc1ccc2c(c1)C(=O)N(C[C@@]1(C#Cc3ccc4c(c3)CN(C)C(=O)N4)NC(=O)NC1=O)C2 [Compound 306] | 
0.011 |  | COc1ccc2c(c1)C(=O)N(C[C@@]1(C#Cc3ccc(C(O)C4CCN(C)CC4)cc3)NC(=O)NC1=O)C2 (stereo partly drawn) [Compound 500] | IC50 [2, 4]: 244 nM
0.357 |  | COc1ccc2c(c1)C(=O)N(C[C@@]1(C#Cc3ccc(-c4cc(N)n(C)n4)cc3)NC(=O)NC1=O)C2 [Compound 709] | 
0.012 |  | COc1ccc2c(c1)C(=O)N(C[C@@]1(C#Cc3ccc4c(N)nn(C)c4c3)NC(=O)NC1=O)C2 [Compound 718] | 
7.59 |  | COc1ccc2c(c1)C(=O)N(C[C@@]1(C#Cc3ccc4c(C)n[nH]c4c3)NC(=O)NC1=O)C2 [Compound 723] | IC50 [2, 4]: 2950 nM
0.082 |  | COc1ccc2c(c1)C(=O)N(C[C@@]1(C#Cc3ccc4c(c3)c(N)nn4C)NC(=O)NC1=O)C2 [Compound 746] | 
 | 238 | CCN1CCN(Cc2ccc(C#C[C@]3(CN4Cc5ccc(OC)cc5C4=O)NC(=O)NC3=O)cc2)CC1 [Compound 933] | AUC [1, 5]: 0.024 µM·h
 | 100 | COc1ccc2c(c1)C(=O)N(C[C@@]1(C#Cc3ccc(C(=NO)N4CCOCC4)cc3)NC(=O)NC1=O)C2 [Compound 941] | AUC [1, 5]: 0.058 µM·h
0.243 |  | COc1ccc2c(c1)C(=O)N(C[C@@]1(C#Cc3ccc(-c4noc(C(C)C)n4)cc3)NC(=O)NC1=O)C2 [Compound 1505] | 
0.23 |  | COc1ccc2c(c1)C(=O)N(C[C@@]1(C#Cc3ccc(-c4cc[nH]n4)nc3)NC(=O)NC1=O)C2 [Compound 2235] | IC50 [2, 4]: 231 nM
4.04 |  | COc1ccc2c(c1)C(=O)N(C[C@@]1(C#Cc3cc(Cl)cnc3N)NC(=O)NC1=O)C2 [Compound 2248] | 
 | 258 | COc1ccc2c(c1)C(=O)N(C[C@@]1(C#Cc3ccc(C(O)(O)C(F)(F)F)cc3)NC(=O)NC1=O)C2 [Compound 2252] | AUC [1, 5]: 0.768 µM·h
 | 2430 | COc1ccc2c(c1)C(=O)N(C[C@@]1(C#Cc3ccc(-c4noc(C)n4)cc3)NC(=O)NC1=O)C2 [Compound 2253] | AUC [1, 5]: 4.14 µM·h
 | 2540 | COc1ccc2c(c1)C(=O)N(C[C@@]1(C#Cc3cccnc3-c3c(C)nn(C)c3C)NC(=O)NC1=O)C2 [Compound 2264] | 
 | 419 | COc1ccc2c(c1)C(=O)N(C[C@@]1(C#Cc3ccc(NCCN(C)C)nc3)NC(=O)NC1=O)C2 [Compound 2289] | 
 | 1590 | COc1ccc2c(c1)C(=O)N(C[C@@]1(C#Cc3cccnc3-c3cncnc3)NC(=O)NC1=O)C2 [Compound 2290] | 
 | 2260 | COc1ccc2c(c1)C(=O)N(C[C@@]1(C#Cc3cccnc3-c3ccncc3)NC(=O)NC1=O)C2 [Compound 2291] | 
 | 372 | COc1ccc2c(c1)C(=O)N(C[C@@]1(C#Cc3ccc(-c4cn[nH]c4)nc3)NC(=O)NC1=O)C2 [Compound 2292] | 
 | 84 | COc1ccc2c(c1)C(=O)N(C[C@@]1(C#Cc3ccc(C(=NO)N4CCNC[C@@H]4C)cc3)NC(=O)NC1=O)C2 [Compound 2293] | 
 | 10000 | COc1ccc2c(c1)C(=O)N(C[C@@]1(C#Cc3cccnc3)NC(=O)NC1=O)CC2 [Compound 2318] | 
